Data taken from patent EP0898962A1, “Transdermal patches and methods for inactivating skin proteases” (Becton, Dickinson and Company, priority 1997, dated 1999).

Experiment: Incubation of peptide drugs on human skin
Assay type: in vitro ADME
Excerpt: Effects of proteases on in vivo or in vitro transdermal delivery has been reported for vasopressin and vasopressin analogues (Morimoto et al., Int. Journal Pharmaceutics 81: 119-125, 1992), des-enkephalon-γ-endorphin (Bodde et al., Biochem. Soc. Trans. 17: 943-945, 1989), leucine enkephalin (Choi at al., 1990), and salmon calcitonin (SCT) (Morimoto et al., J. Pharm. Pharmacol. 44; 216-218, 1992). This was concluded because addition of protease inhibitors appear to enhance delivery as determined by increased biological effect of the peptides. For example, camostat mesilate (a serine protease inhibitor) increased the hypocalcemic effect of iontophoretically-delivered SCT (Morimoto, J. Pharm. Pharmacol. 1992) and the antidiuretic effects of vasopressin delivered iontophoretically in rats (Morimoto, Int. Journal Pharmaceutics, 1992). We have observed that incubation of insulin analogues or SCT on human skin results in degradation, which supports the notion that proteolysis accounts for previously observed losses of these peptide drugs during iontophoretic delivery.

result of incubation on human skin: degradation
Substance: salmon calcitonin [SCT]
